# Patent publication US9241951B2, “Of gastrointestinal health, immunity and performance by dietary intervention” (BIOATLANTIS LTD, priority 2009, dated 2016)
# What was measured:
# IL-8 = assay: Cytokine gene expression in unchallenged ileum and colon tissue (qPCR), Example 5; type: in vivo, pig; conditions: unchallenged ileum or colon tissue; LAM 300, 600 ppm
# Procedure: (§1) 21 pigs with an initial weight of 17.9±2.2 Kg were assigned to one of the 3 dietary treatments: (T1) control; (T2) basal diet+300 ppm LAM; (T3) basal diet+600 ppm LAM. Experimental feeding continued for 21 days ad libitum. Diets were formulated to have similar digestible energy (DE) (14.4 MJ/Kg) and ileal digestible lysine (12.5 g/Kg).
# (§2) Ileal and colonic tissues was stabilised in RNAlater® solution and stored overnight at 4° C. The following day, RNAlater® was removed and samples were stored at −86° C. prior to RNA extraction.
# (§3) Tissue samples for RNA extraction were removed from −86° C. and homogenised. 500 μl of lysis solution/2-ME was added to each sample and these were mechanically disrupted using one 5 mm stainless steel bead per sample. These were then placed in a Tissue Lyser (Qiagen) and lysates were homogenised for 3 mins and transferred to a GenElute Filtration Column (Sigma Aldrich) and RNA was extracted. 1 µg of total RNA was used for cDNA synthesis using oligo(dT)20 primer in a final reaction volume of 20 μl with Superscript™ III First-Strand synthesis system for reverse transcriptase-polymerase chain reaction (RT-PCR) (Invitrogen Life Technologies, Carlsbad, Calif.). At the last step of cDNA synthesis, treatment with E. coli RNase H (Invitrogen Corp.) was performed to digest the remaining RNA/mRNA template, resulting in the production of the single-stranded cDNA template for subsequent qRT-PCR reactions.
# (§4) All porcine primers for the cytokine genes interferon gamma (IFN-γ), interleukin-1α (IL-1α), IL-6, IL-8, IL-10, IL-17, tumour necrosis factor (TNF-α), the mucin genes (MUCs 1, 2, 4, 5AC, 12, 13 and 20) and three reference genes, β-actin (ACTB), Glyceraldehyde-3-phosphate dehydrogenase (GAPDH) and Peptidylprolyl isomerase A (PPIA), were designed using Primer Express™ (PE Applied Biosystems, Foster City, Calif.) and synthesised by MWG Biotech (Milton Keynes, UK). These reference genes were previously validated for use in porcine tissue and qPCR was then carried out on the cDNA using the ABI PRISM 7900HT Fast sequence detection system for 96-well plates (Applied Biosystems, Foster City, Calif.). All samples were prepared in duplicate using SYBR Green Fast PCR Master Mix (Applied Biosystems, Foster City, Calif.), cDNA as template and specific primers for the genes selected. For each reaction 5 μl cDNA, 1.2 μl (forward and reverse primer mix, 5 μM), 10 μl Fast SYBR Green PCR Master Mix (PE Applied Biosystems, Foster City, Calif.) was added and made up to a final volume of 20 μl. The two step PCR program was as follows: 95° C. for 10 minutes for 1 cycle followed by 95° C. for 15 seconds and 60° C. for 1 minute for 40 cycles. The raw Ct values for the reference genes were converted to relative quantities using the formula Q=E ^ΔCt where E is the PCR efficiency of the assay and ^ΔCt is the value calculated for the difference between the lowest Ct value for each gene minus the Ct value of the sample in question. The relative quantities of the endogenous controls were then analysed for stability in geNorm (Vandesompele et al., 2002). The stability ‘M’ value generated by the geNorm application for the selected endogenous controls (ACTB, GAPDH and PPIA) indicated their suitability as endogenous controls for these intestinal samples. The geometric mean of the relative quantities for ACTB, GAPDH and PPIA (normalisation factor) was then calculated using geNorm. The relative quantities of each target gene were divided by the normalisation factor (obtained in geNorm) for that sample to give the final normalised relative expression.
# IL-10 = assay: as above; type: in vivo, pig; conditions: unchallenged ileum or colon tissue; LAM 300, 600 ppm
# Procedure: as §1, §2, §3, §4
# IL-17 = assay: as above; type: in vivo, pig; conditions: unchallenged ileum or colon tissue; LAM 300, 600 ppm
# Procedure: as §1, §2, §3, §4
# TNF-α = assay: as above; type: in vivo, pig; conditions: unchallenged ileum or colon tissue; LAM 300, 600 ppm
# Procedure: as §1, §2, §3, §4
# IL-1α = assay: as above; type: in vivo, pig; conditions: unchallenged ileum or colon tissue; LAM 300, 600 ppm
# Procedure: as §1, §2, §3, §4
# IFN-γ = assay: as above; type: in vivo, pig; conditions: unchallenged ileum or colon tissue; LAM 300, 600 ppm
# Procedure: as §1, §2, §3, §4
# IL-6 = assay: as above; type: in vivo, pig; conditions: unchallenged ileum or colon tissue; LAM 300, 600 ppm
# Procedure: as §1, §2, §3, §4
# Escherichia coli = assay: Faecal microbiology, Example 4; type: in vivo, pig; conditions: LAM diets (300 ppm) v no LAM supplementation (7.84)
# Text: (§5) One hundred and ninety two piglets were weaned at twenty four days of age, with an initial live weight of 6.4±0.785 Kg and assigned to one of four dietary treatments or 21 days post weaning. The dietary treatments consisted of (T1) basal diet, (T2) basal diet with 300 ppm LAM, (T3) basal diet with 236 ppm FUC, (T4) Basal diet with 300 ppm LAM and 236 ppm FUC. Diets were formulated to have identical concentrations of digestible energy (DE) (16 MJ/Kg) and ileal digestible lysine (14 g/Kg). All amino acid requirements were met relative to lysine (Close, 1994). Chromium III oxide was added to the diets for determination of nutrient digestibility. The LAM and FUC were derived from Laminaria hyperborea.
# (§6) Piglets were housed in groups of 4 and offered feed twice daily. Water was supplied ad-libitum. Any pig displaying symptoms of illness was treated appropriately and recorded. Pigs were weighed on day 0 (day of weaning), 7, 14 and 21. Feed intake was monitored weekly. Fresh faecal samples were taken on day 10 and were analysed for E. coli and Lactobacilli concentrations. Faeces samples were collected from each pen on day 12-17 and were retained for chemical analysis. Fresh faecal samples were removed on day 14 and were frozen and retained for volatile fatty acid analysis. Fresh faecal samples were taken on day 17 for pH determination.
# A sample was serially diluted (1:10) in 9.0 ml aliquots of maximum recovery diluent (MRD, Oxoid, Basingstoke, UK), and spread plated (0.1 ml aliquots) onto selective agars. Lactobacillus spp. were isolated on de Man, Rogosa, Sharp agar (MRS, Oxoid) with overnight incubation at 37° C. in 5% CO2. The API 50 CHL (BioMerieux, France) kit was used to confirm suspect Lactobacilli spp. E. coli species were isolated on MacConkey agar (Oxoid), following aerobic incubation at 37° C. for 18-24 hours. Suspect colonies were confirmed with API 20E (BioMerieux, France).
# [1] = Pig performance post weaning with LAM and FUC, Example 4; type: in vivo
# Text: as §5, §6
# MUC5AC = assay: Mucin gene expression in ileum and colon (qPCR), Example 5; type: in vivo, pig; conditions: colon; LAM supplementation
# Procedure: as §1, §2, §3, §4
# [2] = Faecal pH, dry matter and faeces (diarrhoea) scoring, Example 4; type: in vivo, pig
# Text: as §5, §6
# A scoring system was applied to indicate its presence and severity. The following scoring system was used: 1=hard, 2=slightly soft, 3=soft, partially formed, 4=loose, semi-liquid and 5=watery, mucous-like.
substance,measurement,setting,value
laminarin,IL-8 gene expression,IL-8,no effects
same,IL-10 gene expression,IL-10,no effects
same,IL-17 gene expression,IL-17,no effects
same,TNF-α gene expression,TNF-α,no effects
same,IL-1α gene expression,IL-1α,no effects
same,IFN-γ gene expression,IFN-γ,no effects
same,IL-6 gene expression,IL-6,no effects
same,faecal E. coli population,Escherichia coli,7.22
same,Gain: Feed ratio,"[1]; days 7-14, LAM supplemented diets (300 ppm) v unsupplemented (0.569)",0.763
same,ADG,"[1]; days 7-14 post weaning, LAM supplemented diets (300 ppm) v diets with no LAM (0.266)",0.344
same,ADG,"[1]; entire experimental period, LAM supplemented diets (300 ppm) v no LAM (0.232)",0.324
same,Gain: Feed ratio,"[1]; entire experimental period, LAM supplemented diets (300 ppm) v unsupplemented (0.646)",0.703
same,average daily feed intake,"[1]; weaned pigs, 21 days, LAM 300 ppm, FUC 236 ppm",no effect
same,MUC5AC expression,MUC5AC,no effect
same,faecal DM content,"[2]; LAM supplemented diets (300 ppm) v unsupplemented (26.24), in % (unit assumed)",28.64
same,faecal score,"[2]; days 0-21, compared to the basal diet",no effect
same,faecal score,"[2]; days 7-14, scale 1 (hard) to 5 (watery), LAM supplemented diets v 2.57",2.05
